Test results as given in ChEMBL document CHEMBL1136001, “Azapeptides structurally based upon inhibitory sites of cystatins as potent and selective inhibitors of cysteine proteases” (J Med Chem, 2002).
The source made the active and inactive calls. The calls are words filed in the database; no cut-off is given here. Non-standard residues stand in square brackets, D forms with d. Residues, ends and D or L forms follow the SMILES beside them. *: point of attachment. 1Nal = N[C@@H](Cc1cccc2ccccc12)C(=O)O; Cbz = O=C(OCc1ccccc1)*; NHBn = c1ccc(CN*)cc1; OBn = c1ccc(CO*)cc1; azaGly = NNC(=O)O

Experiments:
[1] = target: T1, Papain (Carica papaya, UniProt P00784); assay: In vitro inhibition of papain.
T1 sequence (P00784 whole entry): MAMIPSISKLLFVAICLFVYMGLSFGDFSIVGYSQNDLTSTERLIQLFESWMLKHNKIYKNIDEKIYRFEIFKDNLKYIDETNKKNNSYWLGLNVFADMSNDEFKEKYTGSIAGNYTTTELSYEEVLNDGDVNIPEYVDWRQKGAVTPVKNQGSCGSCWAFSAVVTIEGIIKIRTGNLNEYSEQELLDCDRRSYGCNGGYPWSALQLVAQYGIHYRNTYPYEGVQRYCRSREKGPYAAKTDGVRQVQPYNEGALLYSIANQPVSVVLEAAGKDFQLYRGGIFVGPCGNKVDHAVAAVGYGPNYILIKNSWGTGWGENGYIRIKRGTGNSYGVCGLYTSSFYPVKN

[2] = target: T2, Cathepsin K (Homo sapiens, UniProt P43235); assay: Inhibition of Human Cathepsin K
T2 sequence (P43235 whole entry): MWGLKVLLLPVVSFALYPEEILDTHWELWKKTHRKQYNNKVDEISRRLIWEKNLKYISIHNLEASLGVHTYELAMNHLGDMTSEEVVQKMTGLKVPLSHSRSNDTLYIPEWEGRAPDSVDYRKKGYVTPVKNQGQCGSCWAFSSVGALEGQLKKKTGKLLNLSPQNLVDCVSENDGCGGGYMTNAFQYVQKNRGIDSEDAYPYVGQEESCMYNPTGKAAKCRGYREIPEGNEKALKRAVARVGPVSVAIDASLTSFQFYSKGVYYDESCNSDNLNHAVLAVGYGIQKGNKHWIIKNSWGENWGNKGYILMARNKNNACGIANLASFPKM

[3] = target: Cathepsin B (Homo sapiens, UniProt P07858); assay: Inhibition of Human Cathepsin B
[4] = target: T3, Papain (Carica papaya) (UniProt P00784); assay: Evaluated for inhibitory activity against papain; No inhibition
T3 sequence (whole entry): T1 sequence (P00784 whole entry)

| Structure (SMILES) | Ki [1] | Ki [2] | Ki [3] | NA [4] | NI [4] |
| --- | --- | --- | --- | --- | --- |
| CC(=O)N[C@@H](Cc1ccccc1)C(=O)NNC(=O)N[C@H](C(=O)NCc1ccccc1)C(C)C | 30 nM |  |  |  |  |
| CC[C@H](C)[C@H](NC(=O)NNC(=O)[C@H](Cc1cnc[nH]1)NC(=O)[C@H](CC(C)C)NC(=O)[C@H](C)NC(=O)OCc1ccccc1)C(=O)N[C@H](C(=O)OC)C(C)C (Cbz-ALH[azaGly]IV-OMe) | 0.58 nM | 0.86 nM | 0.03 nM |  |  |
| CNC(=O)[C@@H](NC(=O)NNC(=O)[C@H](Cc1ccccc1)NC(C)=O)C(C)C | 32 nM |  |  |  |  |
| CC[C@H](C)[C@H](NC(=O)NNC(=O)[C@@H](NC(=O)[C@H](CC(C)C)NC(=O)[C@H](CCCN=C(N)N)NC(=O)OCc1ccccc1)C(C)C)C(=O)N[C@H](C(=O)N[C@@H](Cc1c[nH]c2ccccc12)C(N)=O)C(C)C (HELM PEPTIDE1{[O=C(OCc1ccccc1)[*:2]].R.L.V.[O=C(NN[*:1])[*:2]].I.V.W.[am]}$$$$V2.0) | 17 nM | 72 nM | 13 nM |  |  |
| CC(C)C[C@H](NC(=O)OCc1ccccc1)C(=O)N[C@H](C(=O)NNC(=O)N[C@H](C(=O)OCc1ccccc1)C(C)C)C(C)C (Cbz-LV[azaGly]V-OBn) | 6.7 nM | 34 nM | 40 nM |  |  |
| CC[C@H](C)[C@H](NC(=O)NNC(=O)[C@H](Cc1ccccc1)NC(=O)[C@H](CC(C)C)NC(=O)[C@H](C)NC(=O)OCc1ccccc1)C(=O)N[C@H](C(=O)OC)C(C)C (Cbz-ALF[azaGly]IV-OMe) | 0.12 nM | 0.18 nM | 0.13 nM |  |  |
| CCCCOC(=O)[C@@H](NC(=O)NNC(=O)[C@H](Cc1ccccc1)NC(C)=O)C(C)C | 59 nM |  |  |  |  |
| CC(C)C[C@H](NC(=O)[C@H](CCCNC(=N)N)NC(=O)OCc1ccccc1)C(=O)N[C@H](C(=O)NNC(=O)N[C@@H](Cc1c[nH]c2ccccc12)C(=O)N[C@H](C(=O)N[C@@H](C)C(N)=O)C(C)C)C(C)C (HELM PEPTIDE1{[O=C(OCc1ccccc1)[*:2]].R.L.V.[O=C(NN[*:1])[*:2]].W.V.A.[am]}$$$$V2.0) | 100 nM | 100 nM | 43 nM |  |  |
| COC(=O)[C@@H](NC(=O)NNC(=O)[C@H](Cc1ccccc1)NC(C)=O)C(C)C | 61 nM |  |  |  |  |
| CC(=O)N[C@@H](Cc1ccccc1)C(=O)NNC(=O)N[C@H](C(=O)OCc1ccccc1)C(C)C | 21 nM |  |  |  |  |
| CC[C@H](C)[C@H](NC(=O)NNC(=O)[C@H](Cc1ccc(OC)cc1)NC(=O)[C@H](CC(C)C)NC(=O)[C@H](C)NC(=O)OCc1ccccc1)C(=O)N[C@H](C(=O)OC)C(C)C (Cbz-ALY(Me)[azaGly]IV-OMe) | 0.28 nM | 8.42 nM | 1.41 nM |  |  |
| CC(C)C[C@H](N)C(=O)N[C@H](C(=O)NNC(=O)N[C@H](C(=O)OCc1ccccc1)C(C)C)C(C)C (HELM PEPTIDE1{L.V.[O=C(NN[*:1])[*:2]].V.[c1ccc(CO[*:1])cc1]}$$$$V2.0) |  |  |  |  | inactive |
| CC(C)C[C@H](NC(=O)[C@H](CCCNC(=N)N)NC(=O)OCc1ccccc1)C(=O)N[C@H](C(=O)NNC(=O)N[C@H](C(=O)N[C@@H](C)C(N)=O)C(C)C)C(C)C (HELM PEPTIDE1{[O=C(OCc1ccccc1)[*:2]].R.L.V.[O=C(NN[*:1])[*:2]].V.A.[am]}$$$$V2.0) | 0.56 nM | 2.13 nM | 0.12 nM |  |  |
| CC[C@H](C)[C@H](NC(=O)NNC(=O)[C@H](Cc1cccc2ccccc12)NC(=O)[C@H](CC(C)C)NC(=O)[C@H](C)NC(=O)OCc1ccccc1)C(=O)N[C@H](C(=O)OC)C(C)C (Cbz-AL[1Nal][azaGly]IV-OMe) | 0.1 nM | 5.75 nM | 1.58 nM |  |  |

Other lines, results leading:

| Ki [1] | Ki [2] | Ki [3] | NA [4] | NI [4] | Structure (SMILES) |
| --- | --- | --- | --- | --- | --- |
| 20 nM |  |  |  |  | CCOC(=O)[C@@H](NC(=O)NNC(=O)[C@H](Cc1ccccc1)NC(C)=O)C(C)C |
| 0.78 nM | 6.76 nM | 7.29 nM |  |  | CC(C)C[C@H](NC(=O)[C@H](CCCNC(=N)N)NC(=O)OCc1ccccc1)C(=O)N[C@H](C(=O)NNC(=O)N[C@@H](C)C(=O)NCC(N)=O)C(C)C (HELM PEPTIDE1{[O=C(OCc1ccccc1)[*:2]].R.L.V.[O=C(NN[*:1])[*:2]].A.G.[am]}$$$$V2.0) |
| 28 nM |  |  |  |  | CCCCNC(=O)[C@@H](NC(=O)NNC(=O)[C@H](Cc1ccccc1)NC(C)=O)C(C)C |
| 1.35 nM | 2.45 nM | 0.25 nM |  |  | CC[C@H](C)[C@H](NC(=O)NNC(=O)[C@@H](NC(=O)[C@H](CC(C)C)NC(=O)[C@H](C)NC(=O)OCc1ccccc1)[C@@H](C)CC)C(=O)N[C@H](C(=O)NCc1ccccc1)C(C)C (Cbz-ALI[azaGly]IV-NHBn) |
| 24 nM | 61 nM |  |  |  | CCOC(=O)NNC(=O)[C@@H](NC(=O)[C@H](CC(C)C)NC(=O)OC(C)(C)C)C(C)C |
|  |  |  | inactive |  | CC(=O)N[C@@H](Cc1ccccc1)C(=O)NNC(=O)N[C@H](C(=O)O)C(C)C |
|  |  |  |  | inactive | CC(C)C[C@H](NC(=O)OCc1ccccc1)C(=O)N[C@@H](Cc1ccccc1)C(=O)NNC(=O)N[C@H](C(=O)OCc1ccccc1)C(C)C (Cbz-LF[azaGly]V-OBn) |
|  |  |  |  | inactive | CC(C)C[C@H](NC(=O)[C@H](CCCN=C(N)N)NC(=O)OCc1ccccc1)C(=O)N[C@@H](Cc1ccccc1)C(=O)NNC(=O)N[C@H](C(=O)OCc1ccccc1)C(C)C (Cbz-RLF[azaGly]V-OBn) |
|  |  |  |  | inactive | CC(C)C(NC(=O)NNC(=O)OC(C)(C)C)C(=O)OCc1ccccc1 (stereo not given) |
| 0.77 nM | 21 nM | 0.088 nM |  |  | CC[C@H](C)[C@H](NC(=O)NNC(=O)[C@@H](NC(=O)[C@H](CC(C)C)NC(=O)[C@H](CCCN=C(N)N)NC(=O)OCc1ccccc1)C(C)C)C(=O)N[C@H](C(=O)OC)C(C)C (Cbz-RLV[azaGly]IV-OMe) |
| 0.95 nM | 2.12 nM | 0.3 nM |  |  | CC[C@H](C)[C@H](NC(=O)NNC(=O)[C@@H](NC(=O)[C@H](CC(C)C)NC(=O)[C@H](C)NC(=O)OCc1ccccc1)[C@@H](C)CC)C(=O)N[C@H](C(=O)OC)C(C)C (Cbz-ALI[azaGly]IV-OMe) |
